We go through six substances from US20250041367A1, “BACTERIOPHAGES AND USE THEREOF FOR THE TREATMENT OR PREVENTION OF INFECTION CAUSED BY E. COLI” (Purdue Research Foundation, priority 2023, published 2025).

Series [1] deals with E. coli serotype O2:H4 (APEC). Kind of series: Host range spot assay. The format is cell-based, Escherichia coli. Further details: key: — indicates no lysis at all; 0.1-1.0 indicates that the phage is semi-lytic; 1.1-2.0 indicates moderate lysis of bacteria; 2.1-3.0 indicates complete lysis of bacteria and formation of a transparent, circular clearing on the bacterial lawn. The conditions noted are these: E. coli serotype O2:H4, scale 0-3. As to the method:
(§1) The host range of each bacteriophage type was determined by performing spot assays using each of the ten distinct APEC serotypes mentioned above. Spot assays were performed as known in the art (Barrow et al., 1998, Clinical and Diagnostic Laboratory Immunology, 5 (3), 294-298). 100 μL aliquots of log-phase bacterial cultures were combined with 67.5 μL 1M CaCl2) and 4 mL LB overlay, mixed briefly, and poured over LB agar plates. Once the overlay had solidified, 5 μL aliquots of individual phage types were applied (i.e., spotted) onto the plates, and plates were incubated at 37° C. overnight. Plates were assessed for clearings the following day and the degree of lysis was measured using a four-point scale in which 0 indicated no lysis, 1.0 indicated some lysis, 2.0 indicated moderate lysis, and 3 indicated complete lysis. Spot assays were conducted in triplicate for each phage and APEC strain.

Series [2] concerns E. coli serotype O1:H7 (APEC). Kind of series: Host range spot assay. The format is cell-based, Escherichia coli. Further details: key: — indicates no lysis at all; 0.1-1.0 indicates that the phage is semi-lytic; 1.1-2.0 indicates moderate lysis of bacteria; 2.1-3.0 indicates complete lysis of bacteria and formation of a transparent, circular clearing on the bacterial lawn. The settings on record: E. coli serotype O1:H7, scale 0-3. As to the method: as §1

Series [3] is described as follows: Phage stability in simulated gastric fluid (SGF). The settings on record: for phage concentration, unencapsulated, SGF-exposed: SGF pH 2.5 with pepsin; for phage concentration, unencapsulated, SGF-exposed / phage concentration, unencapsulated, PBS-treated: 41° C.; for phage concentration lower in SGF-exposed than in PBS-exposed samples: 90 minutes of exposure; for phage concentration, unencapsulated, PBS-treated: 1×PBS control. The series is classed as physicochemical. As to the method:
The stability of bacteriophages in gastric environments was tested by exposing both encapsulated and unencapsulated bacteriophages to simulated gastric fluid (SGF; 0.32% pepsin (w/v) in 0.2% NaCl; pH 2.5) and to 1×PBS (Moghtader et al., 2016). In this experiment, unencapsulated phages (0.5 mL, in concentrations ranging from 1×10^9 to 4×10^8 PFU/mL depending on the phage type) were added to 4.5 mL of either SGF or PBS (5 replicates per treatment) and incubated at 41° C. This temperature was chosen as it is a typical internal temperature for chickens. Encapsulated phages (0.5 g, in concentrations ranging from 2×10^9 to 2×10^8 PFU/mL depending on the phage type) were also added to 4.5 mL of either SGF or PBS (5 replicates per treatment) and incubated at 41° C. Aliquots (100 μL) were collected from each unencapsulated phage sample after 5, 15, 30, 60, and 90 minutes of exposure to SGF or PBS. These aliquots were serially diluted, and phage concentrations were measured by standard plaque assay. At 15, 30, 60, and 90 minutes post-SGF or PBS exposure, microencapsulated phages were washed with SM buffer to remove residual SGF or PBS and then dissolved in a dissolving solution. Aliquots of the dissolved microcapsules were serially diluted and phage concentrations were measured by standard plaque assay. This experiment was conducted in triplicate for each phage type. Samples containing SGF and unencapsulated bacteriophages were serially diluted without washing and phage concentrations were measured by standard plaque assay as described above. Concentrations of viable phages after exposure to SGF or PBS for a given length of time were then compared.

Series [4] concerns host APEC E. coli O6:H31. Briefly: Lytic capacity of individual phages in liquid media (OD600). The series is classed as cell-based, Escherichia coli. The settings on record: for concentration of APEC (OD600) versus untreated APEC cultures: 2, 3, and 4 hours post-treatment; for OD600 reading of phage-treated APEC culture: after 1 hour of incubation, MOI 10, 37° C., untreated AHP host OD600=0.497. The procedure:
(§2) Individual APEC strains (100 μL) were inoculated into 15 mL LB media in separate tubes (two tubes per strain) and incubated at 37° C. in a shaking incubator. Once the bacterial cultures reached an OD600 0.18-0.22, the individual bacteriophage types (MOI=10) were added to one tube from the pair of tubes inoculated with their respective host APEC strain. The other tubes of bacterial culture were left untreated and served as negative controls. Bacterial growth was assessed by measuring absorbance (OD600) in all tubes every hour for 4 hours. The experiment was repeated three times.
(§3) The six APEC strains were individually inoculated into LB broth and incubated at 37° C. until they reached log-phase growth. Phages were added to the log-phase culture of their APEC host at an MOI of 10, and subsequent bacterial concentrations were determined by measuring the absorbance (OD600) of the culture at 1, 2, 3, and 4 hours post-phage application. One flask containing only bacterial culture was included as a negative control. Additional flasks containing both bacterial cultures and antibiotics (specifically, gentamycin sulfate, kanamycin sulfate, nalidixic acid, or chloramphenicol) at their respective minimum inhibitory concentrations (National Antibiotic Resistance Monitoring System (NARMS) 2019, antibiotics tested by NARMS) were included as positive controls. These lytic capacity experiments were conducted in triplicate for each of the phage types and their respective host APEC strains.

Series [5] is described as follows: Phage stability in simulated intestinal fluid (SIF). The format is physicochemical. The conditions noted are these: unencapsulated phage, SIF pH 7, 41° C., 1, 2, and 3 hours. The procedure: To assess phage stability in intestinal fluids, 0.5 mL of unencapsulated phages were added to 4.5 mL of simulated intestinal fluid (SIF; 0.1% (w/v) bile salt and 0.4% (w/v) pancreatin in 50 mM KH2PO4; pH 7) and incubated at 41° C. As a negative control, 0.5 mL of unencapsulated phages were added to 4.5 mL of 1×PBS and incubated at 41° C. Aliquots (100 μL) were collected from each sample after 1, 2, and 3 hours of exposure to SIF. These aliquots were serially diluted and phage concentrations were measured by standard plaque assay as described above. The experiment was conducted in triplicate for each phage type. Concentrations of viable phages after exposure to SIF or PBS at a given time point were then compared.

The test system of series [6] is host APEC E. coli O2:H4. Kind of series: Lytic capacity of individual phages in liquid media (OD600). The conditions noted are these: for OD600 reading of phage-treated APEC culture: after 1 hour of incubation, MOI 10, 37° C., untreated host OD600=0.454. The format is cell-based, Escherichia coli. The procedure:
as §2, §3

Setting [7] is: 1, 2, 3, and 4 hours post-treatment, MOI 10, P<0.05.

“Also recorded” adds a separate entry of the source.

For the substance Escherichia phage vB_Eco_AHC, the degree of lysis entry in series [1] and in series [2] was “—” throughout. The “phage concentration, encapsulated, PBS-exposed” value in series [3] (encapsulated phage, 60 minutes) was 8.31 log10 PFU/mL; in series [3] (encapsulated phage, 90 minutes) it was 8.23 log10 PFU/mL. The “phage concentration, encapsulated, SGF-exposed” value in series [3] (encapsulated phage, 60 minutes) was 8.13 log10 PFU/mL; in series [3] (encapsulated phage, 90 minutes) it was 7.15 log10 PFU/mL. Also, in series [3] (unencapsulated phage), the “phage concentration, unencapsulated, SGF-exposed” value is listed as “could not be detected; also recorded: not detectable”. In addition, the “concentration of APEC (OD600) versus untreated APEC cultures” value in series [4] (MOI 10, P<0.05) is “Significantly lower”. Also, in series [4], the “OD600 reading of phage-treated APEC culture” value (shortened to “OD600 reading”) was “did not significantly differ”.
In the case of Escherichia phage vB_Eco_MP_1 [MP1], the degree of lysis in series [1] was determined as 2.7. The degree of lysis result in series [2] was “—”. In addition, the “phage concentration lower in SGF-exposed than in PBS-exposed samples” value (from here on “phage concentration lower”) in series [3] (encapsulated phage) was 0.97 log10 PFU/mL. In addition, in series [3] (encapsulated phage, 60 minutes), the “phage concentration, encapsulated, PBS-exposed” value is on record as 9.23 log10 PFU/mL and the “phage concentration, encapsulated, SGF-exposed” value is 9.09 log10 PFU/mL. Moreover, in series [3] (encapsulated phage, 90 minutes), the “phage concentration, encapsulated, PBS-exposed” value is reported as 9.19 log10 PFU/mL and the “phage concentration, encapsulated, SGF-exposed” value is listed as 8.11 log10 PFU/mL. Further, in series [3] (unencapsulated phage), the “phage concentration, unencapsulated, PBS-treated” value is given as 9.27 log10 PFU/mL; the “phage concentration lower” value is given as 3.9 log10 PFU/mL; the “phage concentration, unencapsulated, SGF-exposed” value is reported as 8.71 log10 PFU/mL. Moreover, in series [5], the “phage concentration SIF-exposed versus PBS-exposed” value is given as “significantly lower”. Further, the “OD600 reading” value in series [6] is 0.101.
Regarding Escherichia phage vB_Eco_AKA, the degree of lysis result in series [1] and in series [2] was “—” throughout. Further, the “phage concentration, encapsulated, PBS-exposed” value in series [3] (encapsulated phage, 60 minutes) was 8.27 log10 PFU/mL; in series [3] (encapsulated phage, 90 minutes), 8.22 log10 PFU/mL. Moreover, the “phage concentration, encapsulated, SGF-exposed” value in series [3] (encapsulated phage, 60 minutes) is listed as 8.17 log10 PFU/mL; in series [3] (encapsulated phage, 90 minutes), 7.3 log10 PFU/mL. Also, in series [3] (unencapsulated phage), the “phage concentration, unencapsulated, SGF-exposed” value is listed as “could not be detected; also recorded: not detectable”. The “concentration of APEC (OD600) versus untreated APEC cultures” value in series [4] (MOI 10, P<0.05) is on record as “Significantly lower”. In addition, the “OD600 reading” value in series [4] was “did not significantly differ”.
Turning to Escherichia phage vB_Eco_AHP, the degree of lysis entry in series [1] is “—”; in series [2], 3.0. For the same substance, the “phage concentration, encapsulated, PBS-exposed” value in series [3] (encapsulated phage, 60 minutes) is recorded as 9.23 log10 PFU/mL; in series [3] (encapsulated phage, 90 minutes), 9.19 log10 PFU/mL. The “phage concentration, encapsulated, SGF-exposed” value is reported as 9.21 log10 PFU/mL in series [3] (encapsulated phage, 60 minutes) and 8.12 log10 PFU/mL in series [3] (encapsulated phage, 90 minutes). Further, in series [3] (unencapsulated phage), the “phage concentration lower” value was 2.35 log10 PFU/mL. In addition, the “phage concentration SGF-exposed versus PBS-exposed” value in series [3] (unencapsulated phage, after 5 and 15 minutes of exposure, P>0.05) was “No significant differences”; in series [3] (unencapsulated phage, after 30, 60, and 90 minutes of exposure, P<0.05), “significantly lower”. The “concentration of APEC host versus APEC cultures incubated without phages” value in series [4] (setting [7]) is “significantly lower”. Further, the “OD600 reading” value in series [4] stood at 0.284.
As for Escherichia phage vB_Eco_MP_2 [MP2], in series [1], the degree of lysis is on record as 3.0. Besides, in series [2], the degree of lysis result is reported as “—”. Moreover, the “phage concentration lower” value in series [3] (encapsulated phage) is listed as 0.74 log10 PFU/mL. For the same substance, in series [3] (encapsulated phage, 60 minutes), the “phage concentration, encapsulated, PBS-exposed” value was 9.15 log10 PFU/mL and the “phage concentration, encapsulated, SGF-exposed” value is listed as 9.11 log10 PFU/mL. In series [3] (encapsulated phage, 90 minutes), the “phage concentration, encapsulated, PBS-exposed” value was 9.07 log10 PFU/mL and the “phage concentration, encapsulated, SGF-exposed” value is 8.41 log10 PFU/mL. Besides, in series [3] (unencapsulated phage), the “phage concentration, unencapsulated, PBS-treated” value is on record as 9.05 log10 PFU/mL; the “phage concentration lower” value was 4.5 log10 PFU/mL; the “phage concentration, unencapsulated, SGF-exposed” value is given as 7.72 log10 PFU/mL. In addition, the “concentration of APEC host versus APEC cultures incubated without phages” value in series [6] (setting [7]) is recorded as “significantly lower”. In addition, the “OD600 reading” value in series [6] came out at 0.328.
With Escherichia phage vB_Eco_MIA, the degree of lysis entry in series [1] and in series [2] was “—” throughout. Besides, the “phage concentration, encapsulated, PBS-exposed” value in series [3] (encapsulated phage, 60 minutes) is 8.27 log10 PFU/mL; in series [3] (encapsulated phage, 90 minutes) it was 8.27 log10 PFU/mL. The “phage concentration, encapsulated, SGF-exposed” value is recorded as 8.14 log10 PFU/mL in series [3] (encapsulated phage, 60 minutes) and 7.34 log10 PFU/mL in series [3] (encapsulated phage, 90 minutes). Further, in series [3] (unencapsulated phage), the “phage concentration, unencapsulated, SGF-exposed” value is listed as “could not be detected; also recorded: not detectable”. Moreover, the “concentration of APEC (OD600) versus untreated APEC cultures” value in series [4] (MOI 10, P<0.05) is “Significantly lower”. For the same substance, the “OD600 reading” value in series [4] is reported as “did not significantly differ”.
